Experimental data: patent US12679878B2, “CRF2 receptor agonists and their use in therapy” (SANOFI, priority 2020, dated 2026)
Converted amounts (≈) assume the structure as drawn. Read-outs that look alike come from different tables or passages of the source. Starred links: 1 amine or outer side, 2 acyl side, 3 side chain; linkers in the order of their positions; H or OH if unused. Non-standard residues stand in square brackets, D forms with d. Residues, ends and D or L forms follow the SMILES beside them. Groups on a side chain read outwards from the residue. *: point of attachment. C16 diacid = O=C(O)CCCCCCCCCCCCCCC(=O)*; γGlu = O=C(O)[C@H](CCC(=O)[*:2])N[*:1]; Aib = CC(C)(N)C(=O)O

Legend:
[1] = In vitro plasma stability, rat plasma (Example 19.11); format: in vitro ADME, Sprague Dawley rats; set-up: remaining at 2 h: dose or concentration left out as unconfirmed; conditions: 37° C.; for remaining at 2 h: male, Sprague Dawley, rat, plasma
Description: (§1) In vitro plasma metabolic stability was studied in male Sprague Dawley rats and human. Test compound were incubated […] for 2 hours at 37° C. At each time point (0, 0.25, 1 and 2 h), samples were prepared for analysis by means of a single step protein precipitation technique by adding 150 μL of ethanol, 0.1% formic acid to 50 μL aliquots of plasma. Samples were mixed by vortex for homogeneity and then subjected to centrifugation at 14000 rpm for 15 min. The supernatant (100 μL) was collected, diluted with 100 μL of water, 0.1% formic acid and analyzed by LC-HRMS (TripleTOF 6600+, AB Sciex). For each test compound, the area ratios at each time point were compared to the 0 h area ratio and converted to a percentage remaining.

CRF1R receptor = target: T1, CRF1R receptor (Homo sapiens, UniProt P34998); test: cAMP activity at anti-target CRF1R, CHO-K1 cell line clone 2 (Example 19.10); format: cell-based; conditions: for Emax: 100% = Sauvagine at 100 nM; for CRF1/CRF2 ratio: ratio of CRF1 EC50 to CRF2 EC50
T1 construct: host or cells: CHO-K1 clone 2
T1 sequence (P34998 24-415): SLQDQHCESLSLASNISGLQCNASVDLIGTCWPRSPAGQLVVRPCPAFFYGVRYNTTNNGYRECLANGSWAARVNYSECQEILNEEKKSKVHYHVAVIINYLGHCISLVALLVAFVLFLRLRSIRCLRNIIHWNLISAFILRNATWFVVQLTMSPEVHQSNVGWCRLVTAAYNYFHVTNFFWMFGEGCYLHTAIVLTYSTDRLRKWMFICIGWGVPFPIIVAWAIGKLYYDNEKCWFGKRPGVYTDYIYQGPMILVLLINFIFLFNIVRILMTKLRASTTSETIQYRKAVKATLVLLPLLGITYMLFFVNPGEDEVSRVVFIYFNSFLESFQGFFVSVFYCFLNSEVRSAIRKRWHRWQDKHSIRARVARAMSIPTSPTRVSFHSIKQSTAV
Summary of the method: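 A CRF1R-overexpressing CHO-K1 line (clone 2) was grown in F12/10% FBS/G418 and frozen in aliquots before use. The cAMP assay followed the preceding procedure, with 100% activation defined by Sauvagine at 100 nM.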

[2] = Buffer solubility by LC-UV, pH 7.4 phosphate and pH 4.5 acetate (Example 19.11); format: physicochemical; conditions: target 10 mg/mL
Description: (§2) As for example 15 above, also the chemical stability of representative examples of these FA modified peptides has been assessed, using LC-UV instead of light scattering. Solubility and chemical stability were studied in 100 mM phosphate buffer (pH 7.4) and 100 mM acetate buffer (pH 4.5). Test compound powders were dissolved in both buffers at a target concentration of 10 mg/mL and incubated for 1 hour at room temperature. After centrifugation at 2500 rcf for 15 minutes, […] of supernatant was diluted with […] of the incubation buffer and analyzed by LC-UV (Acquity UPLC-DAD, Waters). Solubility was calculated by comparing the peak area of the test compound in the buffer sample with the peak area of the same compound dissolved at 0.5 mg/ml in water:acetonitrile 1:1, 0.1% formic acid.

[3] = In vitro plasma stability, human plasma (Example 19.11); format: in vitro ADME; set-up: dose or concentration left out as unconfirmed; conditions: 37° C.
Description: as §1

human CRF2α receptor = target: T2, human CRF2α receptor (Homo sapiens, UniProt Q13324); test: cAMP agonism at human CRF2α receptor in TeloHEAC cells, FA modified peptides (Example 19.9); format: cell-based; conditions: 0% HSA, relative to urocortin 2
T2 construct: expressed in transfected cells; host or cells: TeloHEAC
T2 sequence (Q13324 1-411): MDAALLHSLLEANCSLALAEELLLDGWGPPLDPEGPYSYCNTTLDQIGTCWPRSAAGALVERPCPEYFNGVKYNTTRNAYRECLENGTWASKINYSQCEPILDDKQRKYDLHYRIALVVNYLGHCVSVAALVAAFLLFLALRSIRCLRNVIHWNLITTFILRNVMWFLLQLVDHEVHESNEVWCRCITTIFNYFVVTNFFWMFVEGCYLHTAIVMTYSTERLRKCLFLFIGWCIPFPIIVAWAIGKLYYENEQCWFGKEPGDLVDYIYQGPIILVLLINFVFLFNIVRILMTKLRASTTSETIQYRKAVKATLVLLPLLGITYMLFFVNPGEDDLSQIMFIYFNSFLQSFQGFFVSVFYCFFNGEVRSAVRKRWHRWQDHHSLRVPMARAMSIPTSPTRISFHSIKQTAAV
Summary of the method: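 Efficacy and EC50 are referenced to 100 nM urocortin 2 as 100%, with cAMP measured as the 665/620 nm HTRF ratio after 1 h at room temperature. Compounds (0.5 mM DMSO stock, 16 twofold dilutions) acted 30 min at 37 °C on CRF2α-expressing TeloHEAC cells, buffer containing IBMX and 0% or 0.2% HSA.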

[4] = Chemical stability as % loss by LC-UV, 28 days 40° C. vs 5° C. (Example 19.11); format: physicochemical
Description: as §2
From the centrifuged supernatant, two additional […] aliquots were collected and diluted with […] of incubation buffer. One aliquot was stored at 5° C., while the other was stored at 40° C. After 28 days, the samples were analyzed by LC-UV. Chemical stability was calculated as % loss using the following equations: • Chemical stability (as % loss)=[(purity after 28 days at 5° C.)−(purity after 28 days at 40° C.)]×100/(purity after 28 days at 5° C.) % purity=[(peak area compound)×100/(total peak area)]

[5] = 0% HSA, CRF1R CHO-K1 clone 2, read-out: EC50 [nM] 0% HSA
[6] = Table 20 side-to-side comparison, read-out: CRF1 EC50
[7] = pH 7.4, 100 mM phosphate buffer

% remaining at 2 hours ([1]; 120 min) | remaining at 2 h [1] | EC50 (CRF1R receptor; [5]) | Emax (CRF1R receptor; CRF1R CHO-K1 clone 2) | EC50 (CRF1R receptor; [6]) | CRF1/CRF2 ratio (CRF1R receptor) | solubility at 1 h ([2]; pH 4.5, 100 mM acetate buffer) | solubility at 1 h [2, 7] | remaining at 2 h [3] | EC50 (human CRF2α receptor) | % loss (chemical stability) ([4]; pH 4.5) | % loss (chemical stability) ([4]; pH 7.4) | Structure (SMILES)
92% | 102% | > 100 nM | 43.8% | > 100 nM | >500 | 8200 µg/mL (≈ 1690 µM) | 8800 µg/mL (≈ 1810 µM) | 97% | 0.44 nM | 0% | 31% | CC[C@H](C)[C@H](N)C(=O)N[C@H](C(=O)N[C@@H](CC(C)C)C(=O)N[C@@H](CO)C(=O)N[C@@H](CC(C)C)C(=O)N[C@@H](CC(=O)O)C(=O)N[C@@H](C(=O)N1CCC[C@H]1C(=O)N[C@H](C(=O)N[C@@H](CCCCN)C(=O)N[C@@H](CC(C)C)C(=O)N[C@@H](CCCCNC(=O)CC[C@H](NC(=O)CCCCCCCCCCCCCCC(=O)O)C(=O)O)C(=O)N[C@@H](CCC(N)=O)C(=O)N[C@H](C(=O)N[C@@H](CC(C)C)C(=O)N[C@@H](CC(C)C)C(=O)N[C@@H](CCCCN)C(=O)N[C@@H](CCC(N)=O)C(=O)N[C@@H](CCC(=O)O)C(=O)N[C@@H](CCCNC(=N)N)C(=O)N[C@@H](CCC(N)=O)C(=O)N[C@@H](CCCCN)C(=O)NC(C)(C)C(=O)N[C@@H](CCC(N)=O)C(=O)N[C@@H](CCCNC(=N)N)C(=O)N[C@@H](CCC(=O)O)C(=O)N[C@@H](CCC(N)=O)C(=O)N[C@@H](C)C(=O)N[C@@H](CCC(=O)O)C(=O)N[C@@H](CCCCN)C(=O)N[C@@H](CC(N)=O)C(=O)N[C@@H](CCCCN)C(=O)N[C@@H](CCC(N)=O)C(=O)N[C@H](C(=O)N[C@@H](CC(C)C)C(=O)N[C@@H](C)C(=O)N[C@@H](CCC(N)=O)C(=O)N[C@H](C(N)=O)C(C)C)[C@@H](C)CC)[C@@H](C)CC)[C@@H](C)CC)C(C)C)C(C)C [compound 187] (H-IVLSLD[dV]PIKLK([γGlu-C16 diacid])QILLKQERQK[Aib]QREQAEKNKQILAQV-NH2)
 | 84% | > 100 nM | 8.77% | > 100 nM | >500 | 8600 µg/mL (≈ 1770 µM) | 100 µg/mL (≈ 20.6 µM) | 80% | 0.82 nM |  |  | CC[C@H](C)[C@H](N)C(=O)N[C@H](C(=O)N[C@@H](CC(C)C)C(=O)N[C@@H](CO)C(=O)N[C@@H](CC(C)C)C(=O)N[C@@H](CC(=O)O)C(=O)N[C@@H](C(=O)N1CCC[C@H]1C(=O)N[C@H](C(=O)NCC(=O)N[C@@H](CC(C)C)C(=O)N[C@@H](CCCCNC(=O)CC[C@H](NC(=O)CCCCCCCCCCCCCCC(=O)O)C(=O)O)C(=O)N[C@@H](CCC(N)=O)C(=O)N[C@H](C(=O)N[C@@H](CC(C)C)C(=O)N[C@@H](CC(C)C)C(=O)N[C@@H](CCCCN)C(=O)N[C@@H](CCC(N)=O)C(=O)N[C@@H](CCC(=O)O)C(=O)N[C@@H](CCCNC(=N)N)C(=O)N[C@@H](CCC(N)=O)C(=O)N[C@@H](CCCCN)C(=O)N[C@@H](CCCCN)C(=O)NC(C)(C)C(=O)N[C@@H](CCCNC(=N)N)C(=O)N[C@@H](CCC(=O)O)C(=O)N[C@@H](CCC(N)=O)C(=O)N[C@@H](C)C(=O)N[C@@H](CCC(=O)O)C(=O)N[C@H](C(=O)N[C@@H](CC(N)=O)C(=O)N[C@@H](CCCCN)C(=O)N[C@@H](CCCNC(=N)N)C(=O)N[C@H](C(=O)N[C@@H](CC(C)C)C(=O)N[C@@H](CCC(=O)O)C(=O)N[C@@H](CCCNC(=N)N)C(=O)N[C@H](C(N)=O)C(C)C)[C@@H](C)CC)[C@@H](C)O)[C@@H](C)CC)[C@@H](C)CC)C(C)C)C(C)C [compound 193] (H-IVLSLD[dV]PIGLK([γGlu-C16 diacid])QILLKQERQKK[Aib]REQAETNKRILERV-NH2)
 | 85% | > 100 nM | 21.6% |  |  | 7300 µg/mL (≈ 1540 µM) | 700 µg/mL (≈ 147 µM) | 101% | 0.11 nM |  |  | CC[C@H](C)[C@H](N)C(=O)N[C@H](C(=O)N[C@@H](CC(C)C)C(=O)N[C@@H](CO)C(=O)N[C@@H](CC(C)C)C(=O)N[C@@H](CC(=O)O)C(=O)N[C@@H](C(=O)N1CCC[C@H]1C(=O)N[C@H](C(=O)NCC(=O)N[C@@H](CC(C)C)C(=O)N[C@@H](CCCCNC(=O)CC[C@H](NC(=O)CCCCCCCCCCCCCCC(=O)O)C(=O)O)C(=O)N[C@@H](CCC(N)=O)C(=O)N[C@H](C(=O)N[C@@H](CC(C)C)C(=O)N[C@@H](CC(C)C)C(=O)N[C@@H](CCCCN)C(=O)N[C@@H](CCC(N)=O)C(=O)N[C@@H](CCC(=O)O)C(=O)N[C@@H](CCCNC(=N)N)C(=O)N[C@@H](CCC(N)=O)C(=O)N[C@@H](CCCCN)C(=O)N[C@@H](CCCCN)C(=O)NC(C)(C)C(=O)N[C@@H](CCCNC(=N)N)C(=O)N[C@@H](CCC(=O)O)C(=O)N[C@@H](CCC(N)=O)C(=O)N[C@@H](C)C(=O)N[C@@H](CCC(=O)O)C(=O)N[C@H](C(=O)N[C@@H](CC(N)=O)C(=O)N[C@@H](CCCCN)C(=O)N[C@@H](CCC(N)=O)C(=O)N[C@H](C(=O)N[C@@H](CC(C)C)C(=O)N[C@@H](C)C(=O)N[C@@H](CCC(N)=O)C(=O)N[C@H](C(N)=O)C(C)C)[C@@H](C)CC)[C@@H](C)O)[C@@H](C)CC)[C@@H](C)CC)C(C)C)C(C)C [compound 194] (H-IVLSLD[dV]PIGLK([γGlu-C16 diacid])QILLKQERQKK[Aib]REQAETNKQILAQV-NH2; N-terminus assumed)
